Where “and” joins values, the source holds several entries; their conditions need not be identical. Identical values can stand only once. Like-named read-outs stand apart in the source and are kept apart here.
How the values were obtained:
[1] = system: paclitaxel-resistant A549/T cells; test: cells; settings: Homo sapiens, A549, 96 h; for inhibition at 5 µM / inhibition at 10 µM / inhibition at 20 µM: read-out: Growth inhibition rate
Method: (§6) After incubation overnight, 100 μL of culture medium supplemented with various concentrations of compounds was added to each well. After incubation for 96 h, 50 μL of methyl thiazolyl tetrazolium (MTT) solution (2 mg/mL) was added to each well and incubated at 37° C. for 4 h. The culture medium was suctioned, and the cells were dissolved in 200 μL of DMSO. The absorbance at 570 nm was measured by using a microplate reader. The growth inhibition rate GI50 was calculated by GraphPadPrism5.

[2] = system: paclitaxel-resistant MCF-7/T cells; test: Growth inhibition of paclitaxel-resistant breast cancer cells; format: cell-based, human; settings: for GI50: Homo sapiens, MCF7, MCF-7/T paclitaxel-resistant cells; for RI: resistance index: ratio of GI50 MCF-7/T to MCF-7
Method: (§1) The growth inhibition rate GI50 was calculated by GraphPadPrism5.

MX-1 cells = test: Growth inhibition of parental breast cancer cells; format: cell-based; settings: Homo sapiens, MX1; MX-1 parental cells
Method: as §1

MCF-7 cells = test: Growth inhibition of parental breast cancer cells; format: cell-based; settings: Homo sapiens, MCF7; MCF-7 parental cells
Method: as §1

[3] = system: vincristine-resistant KB/V cells; test: Growth inhibition of vincristine-resistant oral epidermoid carcinoma cells; settings: for GI50: Homo sapiens, KBV, read-out: GI50 ± SD; for RI: resistance index: ratio of GI50 KB/V to KB
Method: (§7) Adherent cells: PC-3, HepG-2, HCT-116, and Hela cells were inoculated into a 96-well plate at a density of 1,000-3,500 cells/mL. After incubation overnight, 100 μL of culture medium supplemented with various concentrations of compounds was added to each well. After incubation for 96 h, 50 μL of methyl thiazolyl tetrazolium (MTT) solution (2 mg/mL) was added to each well and incubated at 37° C. for 4 h. The culture medium was suctioned, and the cells were dissolved in 200 μL of DMSO. The absorbance at 570 nm was measured by using a microplate reader. The growth inhibition rate GI50 was calculated by GraphPadPrism5.
(§8) The cells used in the assay included human NSCLC A549 cells and paclitaxel-resistant A549/T cells, human breast cancer MCF-7 cells and paclitaxel-resistant MCF-7/T cells, human breast cancer MX-1 cells and paclitaxel-resistant MX-1/T cells, and human oral epidermoid carcinoma KB cells and vincristine-resistant KB/V cells.
(§9) A549 and A549/T cells were cultured in 1640 Medium, while MX-1, MX-1/T, MCF-7, MCF-7/T, KB, and KB/V cells were cultured in DMEM supplemented with 10% inactivated FBS, 10 mmol/L L-glutamine, 100 U/mL penicillin, and 100 μg/mL streptomycin in a 37° C., 5% CO2 and saturated humidity incubator.

[4] = system: paclitaxel-resistant MX-1/T cells; test: Growth inhibition of paclitaxel-resistant breast cancer cells; settings: for GI50: Homo sapiens, read-out: GI50 ± SD; for RI: resistance index: ratio of GI50 MX-1/T to MX-1
Method: as §7, §8, §9

K562 = test: Cell growth inhibition assay, suspension cells, Trypan Blue counting, 72 h; format: cell-based; settings: Homo sapiens, K562, leukemia
Text: (§2) Human acute myeloid leukemia cells HL-60, human chronic myeloid leukemia cells K562, human prostate cancer cell line PC-3, human hepatoma cells HepG-2, human colon cancer cells HC-T116, and human cervical cancer cell line Hela were purchased from American Type Culture Collection (ATCC). Human acute myeloid leukemia cells MOLM-13 were purchased from DSMZ-Deutsche Sammlung von Mikroorganismen und Zellkulturen GmbH (Braunschweig Germany).
(§3) Suspension cells: Leukemia cells HL-60, MOLM-13, and K562 were inoculated into a 24-well plate at a density of 0.5-1×10^5 cells/mL. Subsequently, the cells were incubated with different concentrations of compounds in an incubator for 72 h. Then, the culture plate was removed from the incubator. In each well, the cells and the compounds were mixed well; 50 μL of cell suspension was transferred and mixed well with 50 μL of Trypan Blue (0.4%), followed by counting microscopically.
(§4) Cell growth inhibition rate was calculated according to the following formula. The growth inhibition rate GI50 (the concentration that results in inhibiting cell growth by 50%) was calculated by GraphPadPrism5.
(§5) Growth inhibition rate=(1−Cell count of the drug group/Cell count of the control group)×100%.

HL-60 = test: as above; format: cell-based; settings: Homo sapiens, HL-60, leukemia
Text: as §2, §3, §4, §5

MOLM-13 = test: as above; format: cell-based; settings: Homo sapiens, MOLM-13, leukemia
Text: as §2, §3, §4, §5

PC-3 = test: Cell growth inhibition assay, adherent cells, MTT, 96 h; format: cell-based; settings: Homo sapiens; PC-3, prostatic cancer, 96 h MTT
Method: as §2, §1

Hela = test: as above; format: cell-based; settings: Homo sapiens, cervical carcinoma, 96 h MTT
Method: as §2, §1

HepG-2 = test: as above; format: cell-based; settings: Homo sapiens, HepG2; HepG-2, liver cancer, 96 h MTT
Method: as §2, §1

HCT-116 = test: as above; format: cell-based; settings: Homo sapiens; HCT-116, colorectal cancer, 96 h MTT
Method: as §2, §1

KB cells = test: Growth inhibition of parental oral epidermoid carcinoma cells; format: cell-based; settings: Homo sapiens
Method: as §1

A549 cells = test: Growth inhibition of parental NSCLC cells; format: cell-based, human
Method: as §1

A549/T xenograft = A549/T xenograft model in BALB/c-nu mice; format: in vivo; settings: i.p. every other day, 10 times, colchicine 0.5 mg/kg, paclitaxel 10 mg/kg, methylaminocolchicine 0.25 and 0.5 mg/kg
Method: Male BALB/c-nu mice (aged 6-8 weeks and weighing 18-20 g) were purchased from Beijing HFK Bioscience Co., Ltd. A549/T cells in logarithmic growth phase were mixed with Matrigel, and inoculated subcutaneously in the right armpit of a BALB/c-nu mouse at a density of 5×10^6 cells/mouse.
The mental state of the mice was monitored every day. The mouse weight was measured and recorded, and mouse weight change curves were plotted based on the average body weight of each group. The long and short diameters of tumors were measured every two days, and the tumor volume was calculated according to the tumor volume calculation formula: tumor volume=(long diameter×short diameter^2)/2. Tumor growth curves were plotted (FIG. 1A).

[5] = system: paclitaxel-resistant A549/T cells; test: cells; settings: Homo sapiens, A549, read-out: GI50 ± SD
Method: as §7, §8, §9
(§10) Cell lines used in the assay included human NSCLC A549 cells and paclitaxel-resistant A549/T cells.

[6] = system: paclitaxel-resistant A549/T cells; settings: 96 h
Method: as §6

[7] = system: paclitaxel-resistant A549/T cells; settings: for GI50: A549/T cells, salts (Table 3)
Method: as §7, §8, §9, §10

Porcine brain tubulin [8] = molecular target: T1, Porcine brain tubulin (Sus scrofa, UniProt P02550+P02554); parameters: In vitro tubulin polymerization assay was carried out using purified tubulin; purchased Cytoskeleton, Denver, CO BK011P; host or cells: porcine brain (tissue-purified); settings: It has been known; cited from earlier work
T1 sequence (P02550 whole entry): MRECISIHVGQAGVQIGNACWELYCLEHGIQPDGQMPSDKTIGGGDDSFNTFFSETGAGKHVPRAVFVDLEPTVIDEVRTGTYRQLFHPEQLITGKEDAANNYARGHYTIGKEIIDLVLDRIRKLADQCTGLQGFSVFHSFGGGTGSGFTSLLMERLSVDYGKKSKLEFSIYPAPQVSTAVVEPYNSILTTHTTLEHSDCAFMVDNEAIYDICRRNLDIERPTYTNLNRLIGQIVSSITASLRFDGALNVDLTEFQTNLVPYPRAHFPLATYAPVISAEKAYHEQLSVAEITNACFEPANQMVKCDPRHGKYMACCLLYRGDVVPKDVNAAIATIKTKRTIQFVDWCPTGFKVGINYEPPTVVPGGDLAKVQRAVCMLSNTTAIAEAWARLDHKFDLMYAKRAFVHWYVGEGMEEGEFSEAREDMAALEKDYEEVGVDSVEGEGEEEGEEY
T1 sequence (P02554 whole entry): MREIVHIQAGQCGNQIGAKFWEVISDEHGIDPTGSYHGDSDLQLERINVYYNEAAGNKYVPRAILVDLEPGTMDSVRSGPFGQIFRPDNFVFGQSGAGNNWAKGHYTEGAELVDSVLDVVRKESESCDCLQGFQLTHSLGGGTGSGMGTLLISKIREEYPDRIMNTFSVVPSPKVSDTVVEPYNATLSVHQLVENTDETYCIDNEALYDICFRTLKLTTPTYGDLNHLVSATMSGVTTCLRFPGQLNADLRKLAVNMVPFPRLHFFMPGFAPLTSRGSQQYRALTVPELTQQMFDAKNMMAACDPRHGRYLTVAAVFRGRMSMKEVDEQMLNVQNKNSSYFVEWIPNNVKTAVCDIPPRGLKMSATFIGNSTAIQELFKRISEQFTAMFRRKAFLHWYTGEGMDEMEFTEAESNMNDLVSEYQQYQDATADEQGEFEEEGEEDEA

Porcine brain tubulin [9] = molecular target: T1, Porcine brain tubulin
Method: In vitro tubulin polymerization assay was carried out using purified tubulin. BK011P-Tubulin Polymerization Assay Kit (Cytoskeleton, Denver, CO) was used. Porcine brain tubulin solution (2 mg/mL) was prepared by using tubulin buffer (80 mM PIPES, 2.0 mM MgCl2, 0.5 mM EGTA, 15% v/v glycerol, and 1 mM GTP). […] Fluorescence intensities (ex-360 nm, em-450 nm) was measured and monitored every 1 min, for consecutive 80 min (FIG. 2).

[10] = Homo sapiens, A549 parental cells, read-out: GI50 ± SD
[11] = ratio of GI50 A549/T to A549, salts (Table 3)
[12] = A549 cells, salts (Table 3), read-out: GI50

Molecule	inhibition at 5 µM [1]	inhibition at 10 µM [1]	inhibition at 20 µM [1]	GI50 [2]	GI50 (MX-1 cells)	GI50 (MCF-7 cells)	GI50 [3]	GI50 [4]	GI50 (KB cells)	GI50 (A549 cells; [10])	GI50 [5]	GI50 [7]	RI: resistance index [7, 11]	GI50 (A549 cells; [12])	further results
CN(C)CC#Cc1ccc(OCCCc2sc(N3CCc4cccc(C(=O)Nc5nc6ccccc6s5)c4C3)nc2C(=O)O)c(F)c1 [A1155463]	6.97%	12.1%	23.7%												
Cc1c(-c2ccc(N3CCc4cccc(C(=O)Nc5nc6ccccc6s5)c4C3)nc2C(=O)O)cnn1CC12CC3CC(CC(C3)C1)C2 [A1331852]	5.17%	11.2%	17.5%												
COc1cc2c(c(OC)c1OC)-c1ccc(OC)c(=O)cc1[C@@H](NC(C)=O)CC2 [Colchicine]				0.251 ± 0.061 µM	0.0579 ± 0.00755 µM	0.0514 ± 0.0108 µM	0.0888 ± 0.00983 µM	0.8382 ± 0.00262 µM	0.0109 ± 0.00126 µM	0.0384 ± 0.00337 µM	1.083 ± 0.00237 µM				GI50 (K562): 0.0107 ± 0.0015 µM; GI50 (HL-60): 0.0093 ± 0.0037 µM; GI50 (MOLM-13): 0.0116 ± 0.00121 µM; GI50 (PC-3): 0.0905 ± 0.0252 µM; GI50 (Hela): 0.124 ± 0.00841 µM; GI50 (HepG-2): 0.0577 ± 0.00541 µM; GI50 (HCT-116): 0.0793 ± 0.00659 µM; Tumor growth inhibition (A549/T xenograft): neither paclitaxel nor colchicine can significantly inhibit the tumor growth
CNc1ccc2c(cc1=O)C(NC(C)=O)CCc1cc(OC)c(OC)c(OC)c1-2 (stereo not drawn) [Methylaminocolchicine]				0.0476 ± 0.00282 µM	0.0112 ± 0.00117 µM	0.0207 ± 0.0028 µM	0.0363 ± 0.00677 µM	0.0114 ± 0.0012 µM	0.00641 ± 0.00239 µM	0.00688 ± 0.00067 µM	0.02364 ± 6e-05 µM				GI50 (K562): 0.005 ± 0.00032 µM; GI50 (HL-60): 0.0035 ± 0.00014 µM; GI50 (MOLM-13): 0.00487 ± 0.00086 µM; GI50 (PC-3): 0.00919 ± 0.00081 µM; GI50 (Hela): 0.00997 ± 0.00234 µM; GI50 (HepG-2): 0.00705 ± 0.00174 µM; GI50 (HCT-116): 0.00916 ± 0.00419 µM; inhibition at 0.02 µM ([1]; read-out: Growth inhibition rate, A549/T, 96 h, methylaminocolchicine alone 20 nM): 1%; inhibition at 0.08 µM ([1]; read-out: Growth inhibition rate, A549/T, 96 h, methylaminocolchicine alone 80 nM): 34.5%; Growth inhibition rate ([6]; methylaminocolchicine alone 40 nM): 3.08% and 0.97%; Growth inhibition rate ([6]; methylaminocolchicine alone 80 nM): 42.77% and 37.66% and 38.92%
CC1(C)CCC(c2ccc(Cl)cc2)=C(CN2CCN(c3ccc(C(=O)NS(=O)(=O)c4ccc(N[C@H](CCN5CCOCC5)CSc5ccccc5)c(S(=O)(=O)C(F)(F)F)c4)cc3)CC2)C1 [Navitoclax]	2.84%	67.7%	96.3%												
CC(=O)O[C@H]1C(=O)[C@@]2(C)[C@H]([C@H](OC(=O)c3ccccc3)[C@]3(O)C[C@H](OC(=O)[C@H](O)[C@@H](NC(=O)c4ccccc4)c4ccccc4)C(C)=C1C3(C)C)[C@]1(OC(C)=O)CO[C@@H]1C[C@@H]2O [Paclitaxel]				0.941 ± 0.265 µM	0.0673 ± 0.00592 µM	0.058 ± 0.00962 µM	0.604 ± 0.0286 µM	1.13 ± 0.228 µM	0.00352 ± 0.00095 µM	0.0231 ± 0.00139 µM	4.75 ± 0.075 µM				RI: resistance index ([7]; ratio of GI50 A549/T to A549): 209.45; RI: resistance index [2]: 16.24; Effect on tubulin polymerization (known action of control drugs) (Porcine brain tubulin [8]): promotes tubulin polymerization; RI: resistance index [3]: 171.48; RI: resistance index [4]: 16.73; Tumor growth inhibition (A549/T xenograft): neither paclitaxel nor colchicine can significantly inhibit the tumor growth
CC1(C)CCC(CN2CCN(c3ccc(C(=O)NS(=O)(=O)c4ccc(NCC5CCOCC5)c([N+](=O)[O-])c4)c(Oc4cnc5[nH]ccc5c4)c3)CC2)=C(c2ccc(Cl)cc2)C1 [Venetoclax]	23.2%	57.7%	95.5%												
CC[C@]1(O)C[C@H]2CN(CCc3c([nH]c4ccccc34)[C@@](C(=O)OC)(c3cc4c(cc3OC)N(C=O)[C@H]3[C@@](O)(C(=O)OC)[C@H](OC(C)=O)[C@]5(CC)C=CCN6CC[C@]43[C@@H]65)C2)C1 [Vincristine]				0.576 ± 0.0807 µM	0.0167 ± 0.00687 µM	0.159 ± 0.0446 µM	0.268 ± 0.0131 µM	0.262 ± 0.0068 µM	0.00269 ± 0.00153 µM	0.0456 ± 0.00368 µM	1.13 ± 0.0127 µM				RI: resistance index ([7]; ratio of GI50 A549/T to A549): 24.7; RI: resistance index [2]: 3.63; Effect on tubulin polymerization (Porcine brain tubulin [9]): Like vincristine, colchicine could inhibit tubulin polymerization; Effect on tubulin polymerization (known action of control drugs) (Porcine brain tubulin [8]): inhibits it; RI: resistance index [3]: 99.68; RI: resistance index [4]: 14.47
Methylaminocolchicine Hydrochloride												0.0637 µM	3.77	0.0169 µM	
Methylaminocolchicine Mesylate												0.0299 µM	1.76	0.017 µM	
Methylaminocolchicine Sulfate												0.0424 µM	1.94	0.0219 µM	
Methylaminocolchicine Tartrate												0.0324 µM	1.99	0.0163 µM	
Methylaminocolchicine p-Toluenesulfonate												0.0727 µM	3.98	0.0183 µM	

Source: patent publication US20240238223A1 (Shenyang Pharmaceutical University, priority 2023, published 2024)
